Source: patent publication EP0908457B1, “3-(1,2-benzisothiazol- and isoxazol-5-Y1)-2,4(1H,3H)-pyrimidinedione or thione and 3-(1,2-benzisothiazol- and isoxazol-5-y1)-4(3H)-pyrimidinone or thione herbicidal agents” (BASF AKTIENGESELLSCHAFT, priority 1997, dated 1999)

Key:
[1] = system: Cyperus serotinus, Rottb.; experiment: Preemergence weed control under flooded paddy conditions, CYPSE (Flatsedge); format: in vivo; conditions: rated three to four weeks after treatment
[2] = system: Echinochloa oryzoides (Ard.) Fritsch.; experiment: Preemergence weed control under flooded paddy conditions, ECHORC (Watergrass (Calif.)); format: in vivo; conditions: flooded paddy, rated three to four weeks after treatment
[3] = system: Oryza sativa, (L.) Tebonnet; experiment: Rice tolerance to post-transplant applications under flooded paddy conditions (Example 187), ORYSAT (Rice, Tebonnet); conditions: rated three to four weeks after treatment
Cyperus iria = experiment: Preemergence weed control under flooded paddy conditions, CYPIR (Rice Flatsedge); format: in vivo; conditions: flooded paddy, rated three to four weeks after treatment
Sagittaria pygmaea, L. = experiment: Preemergence weed control under flooded paddy conditions, SAGPY (Arrowhead (Pygmaea)); format: in vivo; conditions: flooded paddy, rated three to four weeks after treatment
[4] = Rate 0.0320 kg/ha, preemergence
[5] = Rate 0.0620 kg/ha, preemergence
[6] = Rate 0.1250 kg/ha, preemergence
[7] = Rate 0.2500 kg/ha, preemergence weeds
[8] = Rate 0.2500 kg/ha, preemergence
[9] = Rate 0.0320 kg/ha, preemergence weeds
[10] = Rate 0.0620 kg/ha, preemergence weeds
[11] = Rate 0.1250 kg/ha, preemergence weeds
Note: meaning of each grade not given here.

Row | Compound | herbicidal effect rating, CYPSE [1, 7] | herbicidal effect rating, ECHORC [2, 7] | herbicidal effect rating ORYSAT ([3]; Rate 0.0320 kg/ha) | herbicidal effect rating ORYSAT ([3]; Rate 0.0620 kg/ha) | herbicidal effect rating ORYSAT ([3]; Rate 0.1250 kg/ha) | herbicidal effect rating ORYSAT ([3]; Rate 0.2500 kg/ha) | herbicidal effect rating, CYPIR (Cyperus iria; [7]) | herbicidal effect rating, SAGPY (Sagittaria pygmaea, L.; [7]) | herbicidal effect rating, CYPSE [1, 9] | herbicidal effect rating, CYPSE [1, 10] | herbicidal effect rating, CYPSE [1, 11] | herbicidal effect rating, ECHORC [2, 9] | herbicidal effect rating, ECHORC [2, 10] | herbicidal effect rating, ECHORC [2, 11] | herbicidal effect rating, CYPIR (Cyperus iria; [9]) | herbicidal effect rating, CYPIR (Cyperus iria; [10]) | herbicidal effect rating, CYPIR (Cyperus iria; [11]) | herbicidal effect rating, SAGPY (Sagittaria pygmaea, L.; [9]) | herbicidal effect rating, SAGPY (Sagittaria pygmaea, L.; [10]) | herbicidal effect rating, SAGPY (Sagittaria pygmaea, L.; [11]) | also measured
1 | C#CCOC(=O)COc1ccc(OC)cc1-c1nsc2ccc(-n3c(=O)cc(C(F)(F)F)n(C)c3=O)cc12 [Example 349, Acetic acid, {2-{5-[3,6-dihydro-3-methyl-2,6-dioxo-4-(trifluoromethyl)-1(2H)-pyrimidinyl]-1,2-benzisothiazol-3-yl}-4-methoxyphenoxy}-, 2-propynyl ester] | 4.0 | 7.0 | 4.0 | 5.0 | 7.0 | 7.0 | 7.0 | 6.0 | – | – | – | – | – | – | – | – | – | – | – | – | herbicidal effect rating, CYPSE [1, 4]: 4.0; herbicidal effect rating, CYPSE [1, 5]: 4.0; herbicidal effect rating, CYPSE [1, 6]: 4.0; herbicidal effect rating, ECHORC [2, 4]: 5.0; herbicidal effect rating, ECHORC [2, 5]: 5.0; herbicidal effect rating, ECHORC [2, 6]: 6.0; herbicidal effect rating, CYPIR (Cyperus iria; [4]): 0.0; herbicidal effect rating, CYPIR (Cyperus iria; [5]): 4.0; herbicidal effect rating, CYPIR (Cyperus iria; [6]): 7.0; herbicidal effect rating, SAGPY (Sagittaria pygmaea, L.; [4]): 4.0; herbicidal effect rating, SAGPY (Sagittaria pygmaea, L.; [5]): 5.0; herbicidal effect rating, SAGPY (Sagittaria pygmaea, L.; [6]): 5.0
2 | Cn1c(C(F)(F)F)cc(=O)n(-c2ccc3snc(C(C#N)=Cc4cnc[nH]4)c3c2)c1=O [Example 595, 1,2-Benzisothiazole-3-acetonitrile, 5-[3,6-dihydro-3-methyl-2,6-dioxo-4-(trifluoromethyl)-1(2H)-pyrimidinyl]-alpha-(imidazol-5-ylmethylene)-] | – | – | – | 0.0 | 0.0 | 2.0 | – | – | – | – | – | – | – | – | – | – | – | – | – | – | herbicidal effect rating, CYPSE [1, 6]: 0.0; herbicidal effect rating, ECHORC [2, 5]: 0.0; herbicidal effect rating, ECHORC [2, 6]: 3.0; herbicidal effect rating, ECHORC [2, 8]: 4.0; herbicidal effect rating, CYPIR (Cyperus iria; [5]): 0.0; herbicidal effect rating, CYPIR (Cyperus iria; [6]): 2.0; herbicidal effect rating, CYPIR (Cyperus iria; [8]): 4.0; herbicidal effect rating, SAGPY (Sagittaria pygmaea, L.; [5]): 0.0; herbicidal effect rating, SAGPY (Sagittaria pygmaea, L.; [6]): 0.0; herbicidal effect rating, SAGPY (Sagittaria pygmaea, L.; [8]): 0.0
3 | CC(Oc1ccccc1-c1nsc2ccc(-n3c(=O)cc(C(F)(F)F)n(C)c3=O)cc12)C(=O)NS(C)(=O)=O (stereo not drawn) [Example 335, Propionamide, 2-{o-{5-[3,6-dihydro-3-methyl-2,6-dioxo-4-(trifluoromethyl)-1(2H)-pyrimidinyl]-1,2-benzisothiazol-3-yl}phenoxy}-N-(methylsulfonyl)-] | 6.0 | 9.0 | 3.0 | 4.0 | 5.0 | 7.0 | 2.0 | 4.0 | 0.0 | 0.0 | 6.0 | 6.0 | 7.0 | 7.0 | 0.0 | 0.0 | 2.0 | 0.0 | 0.0 | 4.0 | –
4 | CSc1ccc(C)cc1-c1nsc2ccc(-n3c(=O)cc(C(F)(F)F)n(C)c3=O)cc12 [Example 342, 2,4(1H,3H)-Pyrimidinedione, 1-methyl-3-{3-[6-(methylthio)-m-tolyl]-1,2-benzisothiazol-5-yl}-6-(trifluoromethyl)-] | 9.0 | 7.0 | 0.0 | 0.0 | 2.0 | 3.0 | 8.0 | 2.0 | 0.0 | 0.0 | 0.0 | 4.0 | 4.0 | 7.0 | 0.0 | 0.0 | 4.0 | 0.0 | 0.0 | 0.0 | –
5 | COC(=O)COc1ccc(OC)cc1-c1nsc2ccc(-n3c(=O)cc(C(F)(F)F)n(C)c3=O)cc12 [Example 347, Acetic acid, {2-{5-[3,6-dihydro-3-methyl-2,6-dioxo-4-(trifluoromethyl)-1(2H)-pyrimidinyl]-1,2-benzisothiazol-3-yl}-4-methoxyphenoxy}-, methyl ester] | 7.0 | 9.0 | 3.0 | 6.0 | 7.0 | 9.0 | 9.0 | 5.0 | 0.0 | 0.0 | 4.0 | 7.0 | 9.0 | 9.0 | 7.0 | 9.0 | 9.0 | 2.0 | 3.0 | 4.0 | –
6 | Cn1c(C(F)(F)F)cc(=O)n(-c2ccc3snc(-c4ccccc4OCC(=O)NS(=O)(=O)CCl)c3c2)c1=O [Example 344, Acetamide, N-[(chloromethyl)sulfonyl]-2-{o-{5-[3,6-dihydro-3-methyl-2,6-dioxo-4-(trifluoromethyl)-1(2H)-pyrimidinyl]-1,2-benzisothiazol-3-yl}phenoxy}-] | 6.0 | 9.0 | 2.0 | 5.0 | 5.0 | 9.0 | 9.0 | 6.0 | 6.0 | 6.0 | 6.0 | 4.0 | 7.0 | 7.0 | 6.0 | 6.0 | 7.0 | 0.0 | 0.0 | 3.0 | –
7 | COC(=O)C(C)Oc1ccc(OC)cc1-c1nsc2ccc(-n3c(=O)cc(C(F)(F)F)n(C)c3=O)cc12 (stereo not drawn) [Example 348, Propionic acid, 2-{2-{5-[3,6-dihydro-3-methyl-2,6-dioxo-4-(trifluoromethyl)-1(2H)-pyrimidinyl]-1,2-benzisothiazol-3-yl}-4-methoxyphenoxy}-, methyl ester] | 0.0 | 9.0 | 2.0 | 3.0 | 4.0 | 5.0 | 9.0 | 9.0 | 0.0 | 0.0 | 0.0 | 6.0 | 6.0 | 7.0 | 0.0 | 0.0 | 6.0 | 4.0 | 6.0 | 7.0 | –
8 | Cn1c(C(F)(F)F)cc(=O)n(-c2ccc3snc(C(=O)CCl)c3c2)c1=O [Example 338, 2,4(1H,3H)-Pyrimidinedione, 3-[3-(chloroacetyl)-1,2-benzisothiazol-5-yl]-1-methyl-6-(trifluoromethyl)-] | 5.0 | 9.0 | 0.0 | 0.0 | 3.0 | 6.0 | 8.0 | 5.0 | 0.0 | 0.0 | 0.0 | 2.0 | 2.0 | 4.0 | 3.0 | 3.0 | 3.0 | 0.0 | 2.0 | 2.0 | –
